Patent US20240150293A1, “SPIROCYCLOHEXANE DERIVATIVES, PHARMACEUTICAL COMPOSITIONS CONTAINING THEM AND THEIR USES AS ANTI-APOPTOTIC INHIBITORS” (LES LABORATOIRES SERVIER, priority 2021, published 2024)
Where two headings read alike, the source gives them in different places.

Experiments:
[1] = target: Cy5-labelled Mcl1 (amino acids 171-321) C286S protein (UniProtKB Q07820) (Homo sapiens (Human), UniProt Q07820, C286S); experiment: Inhibition of Mcl-1 by the fluorescence quenching assay (Example A, Method B); type: binding
In short: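 Cy5-labelled Mcl1 171-321 C286S (1 nM) quenched by TQ5WS-labelled PUMA peptide (10, 20 or 400 nM); displacement raises fluorescence (Ex 620/Em 680 nm). Buffer 10 mM HEPES, 150 mM NaCl, 0.05% Tween 20, pH 7.4, 5% DMSO; 2 h at room temperature, 11-point curves, IC50 converted to Ki (cKi/eKi).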

[2] = tested on: H929 multiple myeloma tumor line; experiment: In vitro cytotoxicity, MTT assay (Example B, Method A); type: cell-based; settings: H929 cells, 48 hours exposure, read-out: C50
Method: The cytotoxicity studies were carried out on the H929 multiple myeloma tumor line.
The cells are distributed onto microplates and exposed to the test compounds for 48 hours. The cell viability is then quantified by a colorimetric assay, the Microculture Tetrazolium Assay (Carmichael et al, Cancer Res. 1987, 47, 939-942).
The results are expressed in C50 which means concentration corresponding to […] of effect/inhibition.

Cy5-labelled Mcl1 (amino acids 171-321) C286S protein, sequence (Q07820 171-321 C286S): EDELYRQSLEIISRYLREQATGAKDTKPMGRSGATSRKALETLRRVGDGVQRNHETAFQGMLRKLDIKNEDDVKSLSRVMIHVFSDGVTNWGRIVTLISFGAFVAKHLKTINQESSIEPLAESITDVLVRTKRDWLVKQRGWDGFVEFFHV

Ki [1] | Ki ([1]; Ki determined from IC50) | SMILES | IC50 [2] | IC50 ([2]; Homo sapiens, NCI-H929, 48 h)
5.73 nM |  | C[C@@H](COc1ccnc2c1[C@@H](C)CC[C@H]2C)C[C@H]1Cc2ccccc2[C@]12CC[C@@](Nc1cccc(Cl)c1)(C(=O)O)CC2 (single isomer, unassigned) [Example 659, (1r,2′S,4S)-4-(3-chloroanilino)-2′-[(2R)-3-{[(5R*,8S*)-5,8-dimethyl-5,6,7,8-tetrahydroquinolin-4-yl]oxy}-2-methylpropyl]-2′,3′-dihydrospiro[cyclohexane-1,1′-indene]-4-carboxylic acid] | 559 nM | 
68.7 nM |  | Cc1cc(OC[C@H](C)C[C@H]2Cc3ccccc3[C@]23CC[C@@](Nc2cccc(Cl)c2)(C(=O)O)CC3)c2c(n1)CCCC2C (single isomer, unassigned) [Example 662] | 9060 nM | 
23.1 nM |  | Cc1cc(OC[C@H](C)C[C@H]2Cc3ccccc3[C@]23CC[C@@](Nc2cccc(Cl)c2)(C(=O)O)CC3)c2c(n1)CCCC2C (single isomer, unassigned) [Example 663] | 3430 nM | 
46.6 nM |  | C[C@@H](COc1ccnc2c1CCCC2C(F)F)C[C@H]1Cc2ccccc2[C@]12CC[C@@](Nc1cccc(Cl)c1)(C(=O)O)CC2 (single isomer, unassigned) [Example 682] |  | 5180 nM
106 nM |  | C[C@@H](COc1ccnc2c1CCCC2C(F)F)C[C@H]1Cc2ccccc2[C@]12CC[C@@](Nc1cccc(Cl)c1)(C(=O)O)CC2 (single isomer, unassigned) [Example 683] | 9850 nM | 
5.8 nM |  | C[C@@H](COc1ccnc2c1C(F)CCC2)C[C@H]1Cc2ccccc2[C@]12CC[C@@](Nc1cccc(Cl)c1)(C(=O)O)CC2 (single isomer, unassigned) [Example 685] | 1460 nM | 
1.85 nM |  | C[C@@H](COc1ccnc2c1C(F)CCC2)C[C@H]1Cc2ccccc2[C@]12CC[C@@](Nc1cccc(Cl)c1)(C(=O)O)CC2 (single isomer, unassigned) [Example 686] | 442 nM | 
0.827 nM |  | C[C@@H](COc1ccnc2c1[C@H](C)CCC2)CC1Cc2c(Cl)cccc2[C@]12CC[C@@](Nc1cccc(Cl)c1)(C(=O)O)CC2 (single isomer, unassigned) [Example 740] | 45.9 nM | 
1.58 nM |  | C[C@@H](COc1ccnc2c1[C@H](C)CCC2)CC1Cc2c(Cl)cccc2[C@]12CC[C@@](Nc1cccc(Cl)c1)(C(=O)O)CC2 (single isomer, unassigned) [Example 741] | 132 nM | 
1.23 nM |  | C[C@@H](COc1ccnc2c1[C@H](C)CCC2)CC1Cc2c(F)cccc2[C@]12CC[C@@](Nc1cccc(Cl)c1)(C(=O)O)CC2 (single isomer, unassigned) [Example 742] |  | 59.6 nM
0.463 nM |  | C[C@@H](COc1ccnc2c1[C@H](C)CCC2)CC1Cc2c(F)cccc2[C@]12CC[C@@](Nc1cccc(Cl)c1)(C(=O)O)CC2 (single isomer, unassigned) [Example 743] | 110 nM | 
0.356 nM |  | C[C@@H](COc1ccnc2c1[C@H](C)CCC2)CC1Cc2c(Cl)c(F)ccc2[C@]12CC[C@@](Nc1cccc(Cl)c1)(C(=O)O)CC2 (single isomer, unassigned) [Example 746] | 25.4 nM | 
0.788 nM |  | C[C@@H](COc1ccnc2c1[C@H](C)CCC2)CC1Cc2c(Cl)c(F)ccc2[C@]12CC[C@@](Nc1cccc(Cl)c1)(C(=O)O)CC2 (single isomer, unassigned) [Example 747] | 118 nM | 
1.5 nM |  | C[C@@H](COc1ccnc2c1[C@H](C)CCC2)CC1Cc2c(F)c(Cl)ccc2[C@]12CC[C@@](Nc1cccc(Cl)c1)(C(=O)O)CC2 (single isomer, unassigned) [Example 748] |  | 138 nM
0.321 nM |  | C[C@@H](COc1ccnc2c1[C@H](C)CCC2)CC1Cc2c(F)c(Cl)ccc2[C@]12CC[C@@](Nc1cccc(Cl)c1)(C(=O)O)CC2 (single isomer, unassigned) [Example 749] | 72.4 nM | 
1.23 nM |  | Cc1cccc2c1CC(C[C@@H](C)COc1ccnc3c1[C@H](C)CCC3)[C@]21CC[C@](Nc2cccc(Cl)c2)(C(=O)O)CC1 (single isomer, unassigned) [Example 754] |  | 96.6 nM

Ki [1] | Ki ([1]; Ki determined from IC50) | SMILES | IC50 [2] | IC50 ([2]; Homo sapiens, NCI-H929, 48 h)
0.94 nM |  | Cc1cccc2c1CC(C[C@@H](C)COc1ccnc3c1[C@H](C)CCC3)[C@]21CC[C@](Nc2cccc(Cl)c2)(C(=O)O)CC1 (single isomer, unassigned) [Example 755] | 58.4 nM | 
0.303 nM |  | Cc1cc(C(C)O)cc2c1C=C(C[C@@H](C)COc1ccnc3c1[C@H](C)CCC3)[C@]21CC[C@](Nc2cccc(Cl)c2)(C(=O)O)CC1 (single isomer, unassigned) [Example 759] | 185 nM | 
0.198 nM |  | Cc1cc(C(C)O)cc2c1C=C(C[C@@H](C)COc1ccnc3c1[C@H](C)CCC3)[C@]21CC[C@](Nc2cccc(Cl)c2)(C(=O)O)CC1 (single isomer, unassigned) [Example 760] | 81.7 nM | 
0.0909 nM |  | CC(O)c1ccc2c(c1)[C@]1(CC[C@@](Nc3cccc(Cl)c3)(C(=O)O)CC1)[C@@H](C[C@@H](C)COc1ccnc3c1[C@H](C)CC[C@H]3O)C2 (single isomer, unassigned) [Example 861] |  | 56.3 nM
0.113 nM |  | CC(O)c1ccc2c(c1)[C@]1(CC[C@@](Nc3cccc(Cl)c3)(C(=O)O)CC1)[C@@H](C[C@@H](C)COc1ccnc3c1[C@H](C)CC[C@H]3O)C2 (single isomer, unassigned) [Example 862] | 73.8 nM | 
0.382 nM |  | CC(O)c1ccc2c(c1)[C@]1(CC[C@@](Nc3cccc(Cl)c3)(C(=O)O)CC1)[C@@H](C[C@@H](C)COc1ccnc3c1[C@H](C)CC[C@H]3F)C2 (single isomer, unassigned) [Example 863] | 76.7 nM | 
0.374 nM |  | CC(O)c1ccc2c(c1)[C@]1(CC[C@@](Nc3cccc(Cl)c3)(C(=O)O)CC1)[C@@H](C[C@@H](C)COc1ccnc3c1[C@H](C)CC[C@H]3F)C2 (single isomer, unassigned) [Example 864] | 183 nM | 
 | 749 nM | O=C(O)[C@]1(Nc2cccc(Cl)c2)CC[C@@]2(CC1)c1ccccc1CN2CCCOc1ccnc2ccsc12 [Example 36, (1s,4s)-4-(3-chloroanilino)-2′-{3-[(thieno[3,2-b]pyridin-7-yl)oxy]propyl}-2′,3′-dihydrospiro[cyclohexane-1,1′-isoindole]-4-carboxylic acid] |  | 18500 nM
 | 119 nM | O=C(O)[C@]1(Nc2cccc(Cl)c2)CC[C@]2(CC1)C(Br)=Cc1ccccc12 [Example 75, (1s,4s)-2′-bromo-4-(3-chloroanilino)spiro[cyclohexane-1,1′-indene]-4-carboxylic acid] |  | 30000 nM
3.62 nM |  | COCC(COc1ccnc2c1CCC2)CC1Cc2ccccc2[C@]12CC[C@@](Nc1cccc(Cl)c1)(C(=O)O)CC2 (some centres unmarked) [Example 494, (1r,4r)-4-(3-chloroanilino)-2′-(2-{[(6,7-dihydro-5H-cyclopenta[b]pyridin-4-yl)oxy]methyl}-3-methoxypropyl)-2′,3′-dihydrospiro[cyclohexane-1,1′-indene]-4-carboxylic acid] |  | 808 nM
4.8 nM |  | O=C(O)[C@]1(Nc2cccc(Cl)c2)CC[C@@]2(CC1)c1ccccc1CC2CC(COc1ccccc1)COc1ccnc2ccsc12 (some centres unmarked) [Example 501, (1r,4r)-4-(3-chloroanilino)-2′-{2-(phenoxymethyl)-3-[(thieno[3,2-b]pyridin-7-yl)oxy]propyl}-2′,3′-dihydrospiro[cyclohexane-1,1′-indene]-4-carboxylic acid] |  | 431 nM
19.9 nM |  | O=C(O)[C@]1(Nc2cccc(Cl)c2)CC[C@@]2(CC1)c1ccccc1CC2CC(COc1ccnc2ccsc12)C(F)F (some centres unmarked) [Example 511, (1r,4r)-4-(3-chloroanilino)-2′-(3,3-difluoro-2-{[(thieno[3,2-b]pyridin-7-yl)oxy]methyl}propyl)-2′,3′-dihydrospiro[cyclohexane-1,1′-indene]-4-carboxylic acid] |  | 2720 nM
22.4 nM |  | CC[C@@H](COc1ccncc1)C[C@H]1Cc2ccccc2[C@]12CC[C@@](Nc1cccc(Cl)c1)(C(=O)O)CC2 [Example 544, (1r,2′S,4S)-4-(3-chloroanilino)-2′-[(2R)-2-{[(pyridin-4-yl)oxy]methyl}butyl]-2′,3′-dihydrospiro[cyclohexane-1,1′-indene]-4-carboxylic acid] |  | 8320 nM
6.95 nM |  | O=C(O)[C@]1(Nc2cccc(Cl)c2)CC[C@@]2(CC1)c1ccccc1C[C@@H]2C[C@H](COc1ccnc2ccsc12)c1ccccc1 [Example 547, (1r,2′S,4S)-4-(3-chloroanilino)-2′-{(2S)-2-phenyl-3-[(thieno[3,2-b]pyridin-7-yl)oxy]propyl}-2′,3′-dihydrospiro[cyclohexane-1,1′-indene]-4-carboxylic acid] |  | 376 nM
14.6 nM |  | O=C(O)[C@]1(Nc2cccc(Cl)c2)CC[C@@]2(CC1)c1ccccc1C[C@@H]2C[C@H](COc1ccncc1)c1ccccc1 [Example 555, (1r,2′S,4S)-4-(3-chloroanilino)-2′-{(2S)-2-phenyl-3-[(pyridin-4-yl)oxy]propyl}-2′,3′-dihydrospiro[cyclohexane-1,1′-indene]-4-carboxylic acid] |  | 2860 nM
